The species entered for this assay is Cavia porcellus. In words: Inhibitory activity against potassium (15 mM) induced contractions of the guinea pig detrusor smooth muscle. It counts as functional.

A word on the IC50: it is the concentration that gives 50% inhibition. A high value points to lower potency. `C[C@](O)(C(=O)Nc1ccc(S(=O)(=O)c2ccccc2)cc1)C(F)(F)F` displayed an IC50 of 1000 nM.
As for `C[C@](O)(C(=O)Nc1ccc([N+](=O)[O-])cc1)C(F)(F)F`, the figure is 500 nM; as for `C[C@@]1(C(F)(F)F)CN(c2cccc[n+]2[O-])c2cc(S(=O)(=O)c3ccccc3)ccc2O1`, 280 nM.
Then `C[C@]1(C(F)(F)F)CN(c2cccc[n+]2[O-])c2cc(S(=O)(=O)c3ccccc3)ccc2O1`, with 680 nM; and `O=[N+]([O-])c1ccc2c(c1)N(c1cccc[n+]1[O-])CC(C(F)F)(C(F)F)O2`, with 7 nM; and `CC1(C(F)(F)F)CN(c2cccc[n+]2[O-])c2cc(S(=O)(=O)c3ccccc3)ccc2O1` (stereo not drawn), with 540 nM.
Then `CC1(C)CN(c2cccc[n+]2[O-])c2cc(S(=O)(=O)c3ccccc3)ccc2O1`, with 4100 nM; and `CC1(C)Oc2ccc(C#N)cc2[C@@H](N2CCCC2=O)[C@@H]1O` [CROMAKALIM], with 600 nM.

The values are drawn from ChEMBL document CHEMBL1129014, “Crystal receptor models in medicinal chemistry: Application to the generation of highly potent potassium channel openers” (Bioorg Med Chem Lett, 1996).
